Data taken from patent publication US20160158200A1, “Combinations of Hepatitis C Virus Inhibitors” (priority 2013, published 2016).

Test system: HCV genotype-1a variant with glutamine 30 changed to glutamate in the NS5A protein
Assay type: cell-based
Conditions: test compound titrated with BMS-790052 fixed at 200 nM; genotype 1a Q30E replicon
In short: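 Synergy was assessed by combining several fixed amounts of an NS5A-targeting compound with a titration of the second compound of interest.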

Row | Compound | Fold-Synergistic 1a (Q30E)
1 | CC(C)[C@H](NC(=O)c1nn(C)c2ccccc12)c1ncc(-c2ccc(-c3ccc(-c4cnc([C@@H](NC(=O)c5nn(C)c6ccccc56)C(C)C)[nH]4)cc3)cc2)[nH]1 [Compound P-96] | >100 fold
2 | CC(C)[C@H](NC(=O)C(F)(F)c1ccccc1)c1ncc(-c2ccc(-c3ccc(-c4cnc([C@@H](NC(=O)C(F)(F)c5ccccc5)C(C)C)[nH]4)cc3)cc2)[nH]1 [Compound P-97] | >100 fold
3 | CC(C)[C@H](NC(=O)c1cc2ccccc2s1)c1ncc(-c2ccc(-c3ccc(-c4cnc([C@@H](NC(=O)c5cc6ccccc6s5)C(C)C)[nH]4)cc3)cc2)[nH]1 [Compound P-98] | >100 fold
4 | CC(C)[C@H](NC(=O)C(C)(C)F)c1ncc(-c2ccc(-c3ccc(-c4cnc([C@@H](NC(=O)C(C)(C)F)C(C)C)[nH]4)cc3)cc2)[nH]1 [Compound P-99] | >100 fold
5 | CC(C)[C@H](NC(=O)c1coc2ccccc12)c1ncc(-c2ccc(-c3ccc(-c4cnc([C@@H](NC(=O)c5coc6ccccc56)C(C)C)[nH]4)cc3)cc2)[nH]1 [Compound P-100] | >100 fold
6 | CC(C)[C@H](NC(=O)c1ccc(C#N)s1)c1ncc(-c2ccc(-c3ccc(-c4cnc([C@@H](NC(=O)c5ccc(C#N)s5)C(C)C)[nH]4)cc3)cc2)[nH]1 [Compound P-101] | >100 fold
7 | COC(=O)N[C@@H](C(=O)N[C@H](c1ncc(-c2ccc(-c3ccc(-c4cnc([C@@H](NC(=O)[C@H](NC(=O)OC)C5CC5)C(C)C)[nH]4)cc3)cc2)[nH]1)C(C)C)C1CC1 [Compound P-102] | >10 fold
8 | COC(=O)N[C@@H](C(=O)N[C@H](c1ncc(-c2ccc(-c3ccc(-c4cnc([C@@H](NC(=O)[C@H](NC(=O)OC)c5ccccc5)C(C)C)[nH]4)cc3)cc2)[nH]1)C(C)C)c1ccccc1 [Compound P-103] | >100 fold
9 | CC[C@@H](NC(=O)OC)C(=O)N[C@H](c1ncc(-c2ccc(-c3ccc(-c4cnc([C@@H](NC(=O)[C@@H](CC)NC(=O)OC)C(C)C)[nH]4)cc3)cc2)[nH]1)C(C)C [Compound P-104] | >100 fold
10 | COC(=O)N[C@H](CC(C)C)C(=O)N[C@H](c1ncc(-c2ccc(-c3ccc(-c4cnc([C@@H](NC(=O)[C@@H](CC(C)C)NC(=O)OC)C(C)C)[nH]4)cc3)cc2)[nH]1)C(C)C [Compound P-105] | >100 fold
11 | COC(=O)N[C@H](Cc1ccccc1)C(=O)N[C@H](c1ncc(-c2ccc(-c3ccc(-c4cnc([C@@H](NC(=O)[C@@H](Cc5ccccc5)NC(=O)OC)C(C)C)[nH]4)cc3)cc2)[nH]1)C(C)C [Compound P-106] | >100 fold
12 | COC(=O)N(C)[C@H](C(=O)N[C@H](c1ncc(-c2ccc(-c3ccc(-c4cnc([C@@H](NC(=O)[C@H](C(C)C)N(C)C(=O)OC)C(C)C)[nH]4)cc3)cc2)[nH]1)C(C)C)C(C)C [Compound P-107] | >100 fold
13 | CC(C)[C@H](NC(=O)[C@H]1Cc2ccccc21)c1ncc(-c2ccc(-c3ccc(-c4cnc([C@@H](NC(=O)[C@H]5Cc6ccccc65)C(C)C)[nH]4)cc3)cc2)[nH]1 [Compound P-109] | >100 fold
14 | CC(C)[C@H](NC(=O)[C@@H]1Cc2ccccc21)c1ncc(-c2ccc(-c3ccc(-c4cnc([C@@H](NC(=O)[C@@H]5Cc6ccccc65)C(C)C)[nH]4)cc3)cc2)[nH]1 [Compound P-110] | >100 fold
15 | CC(C)[C@H](NC(=O)C(=O)C1(C)CCC(F)(F)CC1)c1ncc(-c2ccc(-c3ccc(-c4cnc([C@@H](NC(=O)C(=O)C5(C)CCC(F)(F)CC5)C(C)C)[nH]4)cc3)cc2)[nH]1 [Compound P-112] | >100 fold
16 | COc1ccc(C(=O)C(=O)N[C@H](c2ncc(-c3ccc(-c4ccc(-c5cnc([C@@H](NC(=O)C(=O)c6ccc(OC)c(Cl)c6)C(C)C)[nH]5)cc4)cc3)[nH]2)C(C)C)cc1Cl [Compound P-113] | >100 fold
17 | CC(C)[C@H](NC(=O)C(=O)C1(C)CCCC1)c1ncc(-c2ccc(-c3ccc(-c4cnc([C@@H](NC(=O)C(=O)C5(C)CCCC5)C(C)C)[nH]4)cc3)cc2)[nH]1 [Compound P-114] | >100 fold
18 | CC(C)[C@H](NC(=O)C(=O)C1(C)CCC1)c1ncc(-c2ccc(-c3ccc(-c4cnc([C@@H](NC(=O)C(=O)C5(C)CCC5)C(C)C)[nH]4)cc3)cc2)[nH]1 [Compound P-115] | >100 fold
19 | COC1(C(=O)C(=O)N[C@H](c2ncc(-c3ccc(-c4ccc(-c5cnc([C@@H](NC(=O)C(=O)C6(OC)CCC6)C(C)C)[nH]5)cc4)cc3)[nH]2)C(C)C)CCC1 [Compound P-116] | >100 fold
20 | CCOC(C)(C)C(=O)C(=O)N[C@H](c1ncc(-c2ccc(-c3ccc(-c4cnc([C@@H](NC(=O)C(=O)C(C)(C)OCC)C(C)C)[nH]4)cc3)cc2)[nH]1)C(C)C [Compound P-117] | >100 fold
21 | CC(C)[C@H](NC(=O)C(=O)C1(C)CCCO1)c1ncc(-c2ccc(-c3ccc(-c4cnc([C@@H](NC(=O)C(=O)C5(C)CCCO5)C(C)C)[nH]4)cc3)cc2)[nH]1 (some centres unmarked) [Compound P-118] | >100 fold

Row | Compound | Fold-Synergistic 1a (Q30E)
22 | COc1cccc(C(=O)C(=O)N[C@H](c2ncc(-c3ccc(-c4ccc(-c5cnc([C@@H](NC(=O)C(=O)c6cccc(OC)c6F)C(C)C)[nH]5)cc4)cc3)[nH]2)C(C)C)c1F [Compound P-119] | >100 fold
23 | CC(C)[C@H](NC(=O)C(=O)c1ncccc1F)c1ncc(-c2ccc(-c3ccc(-c4cnc([C@@H](NC(=O)C(=O)c5ncccc5F)C(C)C)[nH]4)cc3)cc2)[nH]1 [Compound P-120] | >100 fold
24 | CC(C)[C@H](NC(=O)C(=O)c1ccncc1F)c1ncc(-c2ccc(-c3ccc(-c4cnc([C@@H](NC(=O)C(=O)c5ccncc5F)C(C)C)[nH]4)cc3)cc2)[nH]1 [Compound P-121] | >100 fold
25 | CC(C)[C@H](NC(=O)C(=O)c1ccccc1OC(F)F)c1ncc(-c2ccc(-c3ccc(-c4cnc([C@@H](NC(=O)C(=O)c5ccccc5OC(F)F)C(C)C)[nH]4)cc3)cc2)[nH]1 [Compound P-122] | >100 fold
26 | COC1(C(=O)C(=O)N[C@H](c2ncc(-c3ccc(-c4ccc(-c5cnc([C@@H](NC(=O)C(=O)C6(OC)CC6)C(C)C)[nH]5)cc4)cc3)[nH]2)C(C)C)CC1 [Compound P-123] | >100 fold
27 | CC(C)[C@H](NC(=O)C(=O)C(C)(C)C(F)F)c1ncc(-c2ccc(-c3ccc(-c4cnc([C@@H](NC(=O)C(=O)C(C)(C)C(F)F)C(C)C)[nH]4)cc3)cc2)[nH]1 [Compound P-124] | >100 fold
28 | CC(C)[C@H](NC(=O)C(=O)C1(O)CCC(F)(F)CC1)c1ncc(-c2ccc(-c3ccc(-c4cnc([C@@H](NC(=O)C(=O)C5(O)CCC(F)(F)CC5)C(C)C)[nH]4)cc3)cc2)[nH]1 [Compound P-125] | >100 fold
29 | COC1(C(=O)C(=O)N[C@H](c2ncc(-c3ccc(-c4ccc(-c5cnc([C@@H](NC(=O)C(=O)C6(OC)CCC(F)(F)CC6)C(C)C)[nH]5)cc4)cc3)[nH]2)C(C)C)CCC(F)(F)CC1 [Compound P-126] | >100 fold
30 | CC(C)[C@H](NC(=O)C(=O)C1(CF)CCC(F)(F)CC1)c1ncc(-c2ccc(-c3ccc(-c4cnc([C@@H](NC(=O)C(=O)C5(CF)CCC(F)(F)CC5)C(C)C)[nH]4)cc3)cc2)[nH]1 [Compound P-127] | >100 fold
31 | CC(C)[C@H](NC(=O)C(=O)C1(CO)CCC(F)(F)CC1)c1ncc(-c2ccc(-c3ccc(-c4cnc([C@@H](NC(=O)C(=O)C5(CO)CCC(F)(F)CC5)C(C)C)[nH]4)cc3)cc2)[nH]1 [Compound P-128] | >100 fold
32 | CC(C)[C@H](NC(=O)C(=O)C1CC2CCC(C1)C2(F)F)c1ncc(-c2ccc(-c3ccc(-c4cnc([C@@H](NC(=O)C(=O)C5CC6CCC(C5)C6(F)F)C(C)C)[nH]4)cc3)cc2)[nH]1 (some centres unmarked) [Compound P-129] | >100 fold
33 | CC(C)[C@H](NC(=O)N1CCC(F)(F)CC1)c1nc(-c2ccc(-c3ccc(-c4c[nH]c([C@@H](NC(=O)N5CCC(F)(F)CC5)C(C)C)n4)cc3)cc2)c[nH]1 [Compound P-130] | >100 fold
34 | O=C(N1CCC(F)(F)CC1)N1CCC[C@H]1c1ncc(-c2ccc(-c3ccc(-c4cnc([C@@H]5CCCN5C(=O)N5CCC(F)(F)CC5)[nH]4)cc3)cc2)[nH]1 [Compound P-131] | >100 fold
35 | COC1(C(=O)N[C@H](c2ncc(-c3ccc(-c4ccc(-c5cnc([C@@H](NC(=O)C6(OC)CCC(F)(F)CC6)C6(C)CC6)[nH]5)cc4)cc3)[nH]2)C2(C)CC2)CCC(F)(F)CC1 [Compound P-132] | >100 fold
36 | CC1(C(=O)N[C@H](c2ncc(-c3ccc(-c4ccc(-c5cnc([C@@H](NC(=O)C6(C)CCC(F)(F)CC6)C6(C)CC6)[nH]5)cc4)cc3)[nH]2)C2(C)CC2)CCC(F)(F)CC1 [Compound P-133] | >100 fold
37 | CC1([C@H](NC(=O)N2CCC(F)(F)CC2)c2nc(-c3ccc(-c4ccc(-c5c[nH]c([C@@H](NC(=O)N6CCC(F)(F)CC6)C6(C)CC6)n5)cc4)cc3)c[nH]2)CC1 [Compound P-135] | >100 fold
38 | O=C(N1CCC(F)(F)CC1)C1(c2nc(-c3ccc(-c4ccc(-c5c[nH]c(C6(C(=O)N7CCC(F)(F)CC7)CCC6)n5)cc4)cc3)c[nH]2)CCC1 [Compound P-137] | >10 fold
39 | CC(C)(C)[C@H](NC(=O)OC1CCC(F)(F)CC1)c1nc(-c2ccc(-c3ccc(-c4c[nH]c([C@@H](NC(=O)OC5CCC(F)(F)CC5)C(C)(C)C)n4)cc3)cc2)c[nH]1 [Compound P-138] | >100 fold
40 | CC(C)(C)[C@H](NC(=O)C1(C2(O)CCC(F)(F)CC2)CC1)c1nc(-c2ccc(-c3ccc(-c4c[nH]c([C@@H](NC(=O)C5(C6(O)CCC(F)(F)CC6)CC5)C(C)(C)C)n4)cc3)cc2)c[nH]1 [Compound P-146] | >100 fold
41 | CC(C)(C)[C@H](NC(=O)C1(C(=O)N2CCC(F)(F)CC2)CC1)c1nc(-c2ccc(-c3ccc(-c4c[nH]c([C@@H](NC(=O)C5(C(=O)N6CCC(F)(F)CC6)CC5)C(C)(C)C)n4)cc3)cc2)c[nH]1 [Compound P-148] | >100 fold
